The record followed here is US9340493B2, “Hydroxamic acid derivatives useful as antibacterial agents” (Pfizer Inc., priority 2008, dated 2016).

Converted amounts (≈) assume the structure as drawn. Bounds are passed on as bounds.

The target of assay [1] is T1, Pseudomonas aeruginosa LpxC enzyme (Pseudomonas aeruginosa, UniProt P47205).
T1 construct: made in house; host or cells: E. coli
T1 sequence (P47205 1-303): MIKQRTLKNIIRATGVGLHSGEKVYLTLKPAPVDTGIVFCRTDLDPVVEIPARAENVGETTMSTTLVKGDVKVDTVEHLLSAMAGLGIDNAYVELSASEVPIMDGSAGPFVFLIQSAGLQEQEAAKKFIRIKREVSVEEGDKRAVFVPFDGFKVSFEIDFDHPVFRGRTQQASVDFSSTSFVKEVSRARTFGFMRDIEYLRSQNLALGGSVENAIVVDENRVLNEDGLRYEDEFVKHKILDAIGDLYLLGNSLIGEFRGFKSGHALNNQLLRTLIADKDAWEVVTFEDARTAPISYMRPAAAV
Briefly: IC50 assay, LpxC enzyme from P. aeruginosa. The format is biochemical. Conditions: 0.5 nM enzyme, 25° C., pH 8.0, 20 min; ** = average of 2-8 assays. The essentials: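 P. aeruginosa LpxC (0.5 nM, expressed in E. coli) reacted with 0.5 uM ³H-acetyl-labelled UDP-3-O-(R-3-hydroxydecanoyl)-GlcNAc in 50 mM sodium phosphate pH 8.0 with 1 mg/ml BSA at 25 °C for 20 min. Charcoal stopped the reaction, and filtrate radioactivity was counted by scintillation after no-enzyme background subtraction.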

The test system of another assay is P. aeruginosa PAO280. Briefly: MIC determination, P. aeruginosa PAO280. The format is cell-based. Conditions: Pseudomonas aeruginosa, PAO280, read-out: MIC (ug/mL) P. aeruginosa PAO280. The essentials: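 Broth dilution MIC per CLSI M7-A7/M100-S18 guidelines. Strain PAO280 lacks efflux pumps MexAB-oprM, MexXY and MexZ.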
For a further assay, the system named is P. aeruginosa UI-18. In words: MIC determination, P. aeruginosa UI-18. Format: cell-based. Conditions: Pseudomonas aeruginosa, UI18; wild-type; * = arithmetic mean of 2-6 MIC determinations; read-out: MIC (ug/mL) P. aeruginosa UI-18. In outline:
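MIC by broth dilution following CLSI M7-A7 and M100-S18 guidelines, tested against wild-type P. aeruginosa UI-18.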

The subject of assay [2] is Acinetobacter baumanii/haemolyticus. In words: MIC determination, A. baumanii/haemolyticus. Format: cell-based. The note with it: Acinetobacter baumannii; multidrug-resistant clinical isolate; * = arithmetic mean of 2-6 MIC determinations; read-out: MIC (ug/mL) A. baumanii/haemolyticus. The essentials: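 MICs were determined by CLSI broth dilution (M7-A7, M100-S18) against a multidrug-resistant clinical isolate of Acinetobacter baumanii/haemolyticus.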

Another assay has as its system Enterobacter aerogenes. In words: MIC determination, E. aerogenes. The format is cell-based. Conditions: Klebsiella aerogenes; quinolone-resistant, ESBL-expressing clinical isolate; * = arithmetic mean of 2-6 MIC determinations; read-out: MIC (ug/mL) E. aerogenes. The essentials: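 Clinical E. aerogenes isolate, quinolone-resistant and ESBL-expressing. MIC measured in vitro by dilution testing according to CLSI guidelines (M7-A7, M100-S18).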

In the next assay the test system is Escherichia coli EC-1. In words: MIC determination, E. coli EC-1. Format: cell-based. The note with it: EC1, EC-1: VOGEL, * = arithmetic mean of 2-6 MIC determinations, read-out: MIC (ug/mL) E. coli EC-1. The essentials:
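Minimum inhibitory concentration against Escherichia coli EC-1 was determined in vitro by dilution susceptibility testing under CLSI M7-A7 and M100-S18 guidelines.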

The test system of another assay is Klebsiella pneumoniae. Briefly: MIC determination, K. pneumoniae. The format is cell-based. The note with it: ciprofloxacin-resistant, ESBL-expressing clinical isolate, * = arithmetic mean of 2-6 MIC determinations, read-out: MIC (ug/mL) K. pneumoniae. In outline: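 MIC determined by broth dilution per CLSI M7-A7 and M100-S18 guidelines. Strain: ciprofloxacin-resistant, ESBL-expressing clinical isolate of K. pneumoniae.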

Assay [3] concerns Staphylococcus aureus ATCC 29213. Briefly: MIC determination, S. aureus ATCC 29213. Format: cell-based. Conditions: ATCC29213, CLSI quality control reference strain, * = arithmetic mean of 2-6 MIC determinations, read-out: MIC (ug/mL) S. aureus ATCC 29213. The essentials: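 MIC was measured by dilution susceptibility testing following CLSI guidelines (M7-A7; M100-S18). The test organism is the CLSI quality-control reference strain.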

The IC50 is the midpoint of a concentration-inhibition curve. In assay [1], `CCCc1ccc(-c2ccc(COC(CO)(CO)C(=O)NO)cc2)cc1` [Example 51, N,3-dihydroxy-2-(hydroxymethyl)-2-[(4′-propylbiphenyl-4-yl)methoxy]propanamide] gave an IC50 of 0.00186 µM. Also, the MIC with P. aeruginosa PAO280 is 1 µg/mL (≈ 2.78 µM); with P. aeruginosa UI-18, over 16 µg/mL; in assay [2] it was over 16 µg/mL; in the assay with Enterobacter aerogenes, over 16 µg/mL; with Escherichia coli EC-1 it was over 16 µg/mL; in the assay with Klebsiella pneumoniae it was over 16 µg/mL. For the same compound, in assay [3], the MIC is over 16 µg/mL.
`CC(CO)(OCc1ccc(-c2ccc(Cl)cc2)cc1)C(=O)NO` (centres unmarked) [Example 62, 2-[(4′-chlorobiphenyl-4-yl)methoxy]-N,3-dihydroxy-2-methylpropanamide] yielded an IC50 in assay [1] of 0.00417 µM. Further, the MIC with P. aeruginosa PAO280 is 1 µg/mL (≈ 2.98 µM); in the assay with P. aeruginosa UI-18, 32 µg/mL (≈ 95.3 µM); in assay [2], over 32 µg/mL; in the assay with Enterobacter aerogenes, over 32 µg/mL; in the assay with Escherichia coli EC-1, over 32 µg/mL; with Klebsiella pneumoniae, over 32 µg/mL. Further, the MIC in assay [3] is over 32 µg/mL.
As for `CCCc1ccc(-c2ccc(CO[C@](C)(C(=O)NO)[C@@H](O)c3cn4ccccc4n3)cc2)cc1` [Example 26, (2S,3S)-N,3-dihydroxy-3-imidazo[1,2-a]pyridin-2-yl-2-methyl-2-[(4′-propylbiphenyl-4-yl)methoxy]propanamide], the IC50 in assay [1] was determined as 0.00137 µM. Further, the MIC in the assay on P. aeruginosa PAO280 amounted to 2 µg/mL (≈ 4.35 µM); in the assay with P. aeruginosa UI-18, 8 µg/mL (≈ 17.4 µM); in assay [2], 1 µg/mL (≈ 2.18 µM); in the assay with Enterobacter aerogenes it was 8 µg/mL (≈ 17.4 µM); in the assay on Escherichia coli EC-1 it was 1 µg/mL (≈ 2.18 µM); in the assay on Klebsiella pneumoniae, 4 µg/mL (≈ 8.7 µM). Also, the MIC in assay [3] is 32 µg/mL (≈ 69.6 µM).
In turn, `C[C@@](OCc1ccc(-c2ccc(F)cc2)cc1)(C(=O)NO)[C@@H](O)c1cc(CO)on1` [Example 35, (2S,3S)-2-[(4′-fluorobiphenyl-4-yl)methoxy]-N,3-dihydroxy-3-[5-(hydroxymethyl)isoxazol-3-yl]-2-methylpropanamide] had an IC50 in assay [1] of 0.000695 µM. In addition, the MIC in the assay with P. aeruginosa PAO280 is 0.03 µg/mL (≈ 0.072 µM); in the assay with P. aeruginosa UI-18, 1 µg/mL (≈ 2.4 µM); in assay [2], 64 µg/mL (≈ 154 µM); in the assay with Enterobacter aerogenes, over 64 µg/mL; in the assay with Escherichia coli EC-1, 23 µg/mL (≈ 55.2 µM); with Klebsiella pneumoniae, 53 µg/mL (≈ 127 µM). In addition, in assay [3], the MIC is over 64 µg/mL.
Take `Cc1cc(-c2ccc(COC(C)(C(=O)NO)C(=O)NCc3cc(C)on3)cc2)ccn1` (centres unmarked) [Example 86, N-hydroxy-2-methyl-N′-[(5-methylisoxazol-3-yl)methyl]-2-{[4-(2-methylpyridin-4-yl)benzyl]oxy}malonamide]: in assay [1], the IC50 was found to be 0.00681 µM. Moreover, the MIC was 0.25 µg/mL (≈ 0.589 µM) with P. aeruginosa PAO280; 16 µg/mL (≈ 37.7 µM) in the assay with P. aeruginosa UI-18; over 64 µg/mL in assay [2]; over 64 µg/mL with Enterobacter aerogenes; over 64 µg/mL in the assay with Escherichia coli EC-1; over 64 µg/mL with Klebsiella pneumoniae. The MIC in assay [3] is over 64 µg/mL.
In assay [1], `CC(OCc1ccc(-c2ccccc2)cc1)(C(=O)NO)C1(O)CCC1` (centres unmarked) [Example 48, 2-(biphenyl-4-ylmethoxy)-N-hydroxy-2-(1-hydroxycyclobutyl)propanamide] displayed an IC50 of 0.00623 µM. Also, the MIC was under 0.06 µg/mL in the assay on P. aeruginosa PAO280; 16 µg/mL (≈ 46.9 µM) in the assay with P. aeruginosa UI-18; over 64 µg/mL in assay [2]; over 64 µg/mL with Enterobacter aerogenes; over 64 µg/mL with Escherichia coli EC-1; over 64 µg/mL in the assay on Klebsiella pneumoniae. For the same compound, in assay [3], the MIC is over 64 µg/mL.
The compound `C[C@@](OCc1ccc(-c2ccccc2)cc1)(C(=O)NO)[C@@H](O)c1cc(CO)on1` [Example 34, (2S,3S)-2-(biphenyl-4-ylmethoxy)-N,3-dihydroxy-3-[5-(hydroxymethyl)isoxazol-3-yl]-2-methylpropanamide] returned an IC50 in assay [1] of 0.000579 µM. The MIC in the assay on P. aeruginosa PAO280 was 0.023 µg/mL (≈ 0.0577 µM); in the assay with P. aeruginosa UI-18, 1.25 µg/mL (≈ 3.14 µM); in assay [2], 64 µg/mL (≈ 161 µM); with Enterobacter aerogenes, over 64 µg/mL; in the assay on Escherichia coli EC-1, 28 µg/mL (≈ 70.3 µM); in the assay on Klebsiella pneumoniae, 64 µg/mL (≈ 161 µM). The MIC in assay [3] was over 64 µg/mL.
With `C[C@@](OCc1ccc(-c2ccc(C(F)(F)F)cn2)cc1)(C(=O)NO)[C@@H](O)c1cc(CO)on1` [Example 41, (2S,3S)-N,3-dihydroxy-3-[5-(hydroxymethyl)isoxazol-3-yl]-2-methyl-2-({4-[5-(trifluoromethyl)pyridin-2-yl]benzyl}oxy)propanamide], the IC50 in assay [1] was 0.00116 µM. Moreover, the MIC in the assay with P. aeruginosa PAO280 was 0.25 µg/mL (≈ 0.535 µM); with P. aeruginosa UI-18, 32 µg/mL (≈ 68.5 µM); in assay [2], over 64 µg/mL; with Enterobacter aerogenes, over 64 µg/mL; in the assay with Escherichia coli EC-1 it was over 64 µg/mL; with Klebsiella pneumoniae, over 64 µg/mL. Besides, the MIC in assay [3] was over 64 µg/mL.
In the case of `C[C@@](OCc1ccc(-c2ccccc2)cc1)(C(=O)NO)[C@@H](O)c1ccco1` [Example 13, (2S,3S)-2-(biphenyl-4-ylmethoxy)-3-(2-furyl)-N,3-dihydroxy-2-methylpropanamide], inhibition in assay [1] was half-maximal at 0.00163 µM (IC50). In addition, the MIC was 0.5 µg/mL (≈ 1.36 µM) in the assay on P. aeruginosa PAO280; 32 µg/mL (≈ 87.1 µM) in the assay with P. aeruginosa UI-18; over 32 µg/mL in assay [2]; over 32 µg/mL in the assay with Enterobacter aerogenes; over 32 µg/mL with Escherichia coli EC-1; over 32 µg/mL in the assay with Klebsiella pneumoniae. Besides, in assay [3], the MIC is over 32 µg/mL.
The compound `Cc1cc(CNC(=O)C(C)(OCc2ccc(-c3cnccn3)cc2)C(=O)NO)no1` (centres unmarked) [Example 90, N-hydroxy-2-methyl-N′-[(5-methylisoxazol-3-yl)methyl]-2-[(4-pyrazin-2-ylbenzyl)oxy]malonamide] registered an IC50 in assay [1] of 0.147 µM. Also, the MIC in the assay on P. aeruginosa PAO280 was 4 µg/mL (≈ 9.72 µM); in the assay on P. aeruginosa UI-18, over 64 µg/mL; in assay [2], over 64 µg/mL; in the assay with Enterobacter aerogenes, over 64 µg/mL; with Escherichia coli EC-1, over 64 µg/mL; in the assay on Klebsiella pneumoniae it was over 64 µg/mL. Also, in assay [3], the MIC was over 64 µg/mL.
Take `CCc1ccc(-c2ccc(CO[C@](C)(C(=O)NO)[C@@H](O)c3cc(CO)on3)cc2)cc1` [Example 36, (2S,3S)-2-[(4′-ethylbiphenyl-4-yl)methoxy]-N,3-dihydroxy-4-[5-(hydroxymethyl)isoxazol-3-yl]-2-methylpropanamide]: the IC50 in assay [1] came to 0.000244 µM. Further, the MIC turned out to be 0.03 µg/mL (≈ 0.0703 µM) with P. aeruginosa PAO280; 1 µg/mL (≈ 2.34 µM) in the assay on P. aeruginosa UI-18; 32 µg/mL (≈ 75 µM) in assay [2]; 64 µg/mL (≈ 150 µM) with Enterobacter aerogenes; 4 µg/mL (≈ 9.38 µM) in the assay on Escherichia coli EC-1; 16 µg/mL (≈ 37.5 µM) in the assay with Klebsiella pneumoniae. Further, in assay [3], the MIC is 64 µg/mL (≈ 150 µM).
Compound `COCc1ccc([C@H](O)[C@](C)(OCc2ccc(-c3ccccc3)cc2)C(=O)NO)o1` [Example 24, (2S,3S)-2-(biphenyl-4-ylmethoxy)-N,3-dihydroxy-3-[5-(methoxymethyl)-2-furyl]-2-methylpropanamide] registered an IC50 in assay [1] of 0.00128 µM. Besides, the MIC in the assay on P. aeruginosa PAO280 was 2 µg/mL (≈ 4.86 µM); in the assay with P. aeruginosa UI-18, 32 µg/mL (≈ 77.8 µM); in assay [2], over 64 µg/mL; in the assay with Enterobacter aerogenes, over 64 µg/mL; with Escherichia coli EC-1 it was over 64 µg/mL; in the assay with Klebsiella pneumoniae it was over 64 µg/mL. Besides, the MIC in assay [3] is over 64 µg/mL.
The compound `C[C@@](OCc1ccc(-c2ccccc2)cc1)(C(=O)NO)[C@@H](O)c1ccn[nH]1` [Example 45, (2S,3S)-2-(biphenyl-4-ylmethoxy)-N,3-dihydroxy-2-methyl-3-(1H-pyrazol-3-yl)propanamide] gave an IC50 in assay [1] of 0.00195 µM. The MIC with P. aeruginosa PAO280 was 0.25 µg/mL (≈ 0.68 µM); in the assay with P. aeruginosa UI-18, 16 µg/mL (≈ 43.5 µM); in assay [2], over 32 µg/mL; with Enterobacter aerogenes, over 32 µg/mL; in the assay with Escherichia coli EC-1, over 32 µg/mL; in the assay with Klebsiella pneumoniae it was over 32 µg/mL. Besides, the MIC in assay [3] was over 32 µg/mL.
